Patent US20040171566A1, “Antisense modulation of p38 mitogen activated protein kinase expression” (priority 1999, published 2004)
e = 2'-O-(2-methoxyethyl) (MOE); d = 2'-deoxy (DNA)

How the values were obtained:
Assay type in all cases: cell-based
[1] = test system: human p38β mRNA; assay: Inhibition of human p38β mRNA expression in HUVEC cells, Northern blot; settings: 100 nM oligonucleotide in 10 μg/ml LIPOFECTIN, four hours, Northern blot
Description: The human Jurkat T-cell line (American Type Culture Collection, Manassas, Va.) was maintained in RPMI 1640 growth media supplemented with 10% fetal bovine serum (FBS; Hyclone, Logan, Utah). HUVEC cells (Clonetics, San Diego, Calif.) were cultivated in endothelial basal media supplemented with 10% FBS (Hyclone, Logan, Utah).
HUVEC cells were allowed to reach 75% confluency prior to use. The cells were washed twice with warm (37° C.) OPTI-MEM™ (Life Technologies). The cells were incubated in the presence of the appropriate culture medium, without the growth factors added, and the oligonucleotide formulated in LIPOFECTIN7 (Life Technologies), a 1:1 (w/w) liposome formulation of the cationic lipid N-[1-(2,3-dioleyloxy)propyl]-n,n,n-trimethylammonium chloride (DOTMA), and dioleoyl phosphotidylethanolamine (DOPE) in membrane filtered water. HUVEC cells were treated with 100 nM oligonucleotide in 10 μg/ml LIPOFECTIN7. Treatment was for four hours.
Total mRNA was isolated using the RNEASY7 Mini Kit (Qiagen, Valencia, Calif.; similar kits from other manufacturers may also be used), separated on a 1% agarose gel, transferred to HYBOND™-N+ membrane (Amersham Pharmacia Biotech, Piscataway, N.J.), a positively charged nylon membrane, and probed. p38 MAPK probes were made using the Prime-A-Gene7 kit (Promega Corporation, Madison, Wis.), a random primer labeling kit, using mouse p38α or p38β cDNA as a template. A glyceraldehyde 3-phosphate dehydrogenase (G3PDH) probe was purchased from Clontech (Palo Alto, Calif.), Catalog Number 9805-1. The fragments were purified from low-melting temperature agarose, as described in Maniatis, T., et al., Molecular Cloning: A Laboratory Manual, 1989. The G3PDH probe was labeled with REDIVUE™ ^32P-dCTP (Amersham Pharmacia Biotech, Piscataway, N.J.) and Strip-EZ labelling kit (Ambion, Austin, Tex.). mRNA was quantitated by a PhosphoImager (Molecular Dynamics, Sunnyvale, Calif.).
Every oligonucleotide tested gave at least 50% inhibition.
Oligonucleotides 17893 (SEQ ID NO. 27), 17899 (SEQ ID NO:33), 17904 (SEQ ID NO. 38), and 17907 (SEQ ID NO. 41) were chosen for dose response studies. HUVEC cells were cultured and treated as described in Example 2 except that the oligonucleotide concentration was varied as shown in Table 6. The Lipofectin7/Oligo ratio was maintained at 3 μg Lipofectin7/100 nM oligo, per ml. mRNA was measured by Northern blot as described in Example 2.

[2] = test system: mouse p38α mRNA; assay: Mouse p38α mRNA levels in bEND.3 cells, quantitative real-time PCR; set-up: % Inhib. mouse p38α: concentration or dose not given beside the values; settings: bEND.3 cells, mRNA by quantitative real-time PCR, average of two experiments
Description: (§1) Quantitation of p38α mRNA levels was accomplished by real-time quantitative PCR using the ABI PRISM™ 7600, 7700, or 7900 Sequence Detection System (PE-Applied Biosystems, Foster City, Calif.) according to manufacturer's instructions. This is a closed-tube, non-gel-based, fluorescence detection system which allows high-throughput quantitation of polymerase chain reaction (PCR) products in real-time. As opposed to standard PCR in which amplification products are quantitated after the PCR is completed, products in real-time quantitative PCR are quantitated as they accumulate. This is accomplished by including in the PCR reaction an oligonucleotide probe that anneals specifically between the forward and reverse PCR primers, and contains two fluorescent dyes. A reporter dye (e.g., FAM or JOE, obtained from either PE-Applied Biosystems, Foster City, Calif., Operon Technologies Inc., Alameda, Calif. or Integrated DNA Technologies Inc., Coralville, Iowa) is attached to the 5′ end of the probe and a quencher dye (e.g., TAMRA, obtained from either PE-Applied Biosystems, Foster City, Calif., Operon Technologies Inc., Alameda, Calif. or Integrated DNA Technologies Inc., Coralville, Iowa) is attached to the 3′ end of the probe. When the probe and dyes are intact, reporter dye emission is quenched by the proximity of the 3′ quencher dye. During amplification, annealing of the probe to the target sequence creates a substrate that can be cleaved by the 5′-exonuclease activity of Taq polymerase. […] With each cycle, additional reporter dye molecules are cleaved from their respective probes, and the fluorescence intensity is monitored at regular intervals by laser optics built into the ABI PRISM™ Sequence Detection System. In each assay, a series of parallel reactions containing serial dilutions of mRNA from untreated control samples generates a standard curve that is used to quantitate the percent inhibition after antisense oligonucleotide treatment of test samples.
(§2) Prior to quantitative PCR analysis, primer-probe sets specific to the target gene being measured are evaluated for their ability to be “multiplexed” with a GAPDH amplification reaction. In multiplexing, both the target gene and the internal standard gene GAPDH are amplified concurrently in a single sample. In this analysis, mRNA isolated from untreated cells is serially diluted. Each dilution is amplified in the presence of primer-probe sets specific for GAPDH only, target gene only (“single-plexing”), or both (multiplexing). Following PCR amplification, standard curves of GAPDH and target mRNA signal as a function of dilution are generated from both the single-plexed and multiplexed samples. If both the slope and correlation coefficient of the GAPDH and target signals generated from the multiplexed samples fall within 10% of their corresponding values generated from the single-plexed samples, the primer-probe set specific for that target is deemed multiplexable. Other methods of PCR are also known in the art.
(§3) PCR reagents were obtained from Invitrogen Corporation, (Carlsbad, Calif.). […] The RT reaction was carried out by incubation for 30 minutes at 48° C. Following a 10 minute incubation at 95° C. to activate the PLATINUM® Taq, 40 cycles of a two-step PCR protocol were carried out: 95° C. for 15 seconds (denaturation) followed by 60° C. for 1.5 minutes (annealing/extension).
(§4) Gene target quantities obtained by real time RT-PCR are normalized using either the expression level of GAPDH, a gene whose expression is constant, or by quantifying total RNA using RiboGreen™ (Molecular Probes, Inc. Eugene, Oreg.). GAPDH expression is quantified by real time RT-PCR, by being run simultaneously with the target, multiplexing, or separately. Total RNA is quantified using RiboGreen™ RNA quantification reagent (Molecular Probes, Inc. Eugene, Oreg.). Methods of RNA quantification by RiboGreen™ are taught in Jones, L. J., et al, (Analytical Biochemistry, 1998, 265, 368-374). […]

[3] = test system: rat p38α mRNA; assay: Rat p38α mRNA levels in NR-8383 cells, quantitative real-time PCR; settings: 300 nM oligonucleotide with FuGENE 6, 24 hours, mRNA by quantitative real-time PCR, average of two experiments
Description: as §1, §2, §3, §4

Substance	% mRNA EXPRESSION [1] [%]	% mRNA Inhibition [1] [%]	% Inhib. mouse p38α [2] [%]	% Inhib. rat p38α [3] [%]
GCCAGTGCCTCAGGTGCACT [ISIS 17902]	49	51		
TCTGTGACCATAGGAGTGTG (antisense; chemistry not fully specified) [ISIS 17905]	14	86		
320154 (antisense TCATGTTTATAAAGGTGAAA; sugars from the 5' end e5 d10 e5, all phosphorothioate, methylation of C not given here) [compound 320154]			52	50
320149 (antisense AAGGAGCTCCTGGCTTCAGG; sugars from the 5' end e5 d10 e5, all phosphorothioate, methylation of C not given here) [compound 320149]			74	25
320112 (antisense CGTTCTTCCGGTCAACAGCT; sugars from the 5' end e5 d10 e5, all phosphorothioate, methylation of C not given here) [compound 320112]			93	58
320173 (antisense TCCCACAGGCAGCGGCCGGG; sugars from the 5' end e5 d10 e5, all phosphorothioate, methylation of C not given here) [compound 320173]			160	250
320155 (antisense CCCTGAGGATTCATGTTTAT; sugars from the 5' end e5 d10 e5, all phosphorothioate, methylation of C not given here) [compound 320155]			93	73
320153 (antisense AATATTAAAATAATTTGCCC; sugars from the 5' end e5 d10 e5, all phosphorothioate, methylation of C not given here) [compound 320153]			0	22
320166 (antisense ACTGAATGTAGTTTCTTGCC; sugars from the 5' end e5 d10 e5, all phosphorothioate, methylation of C not given here) [compound 320166]			53	35
320161 (antisense GCTGAAGCTGGTTAATATGG; sugars from the 5' end e5 d10 e5, all phosphorothioate, methylation of C not given here) [compound 320161]			80	66
101755 (antisense CATCATCAGGGTCGTGGTAC; sugars from the 5' end e5 d10 e5, all phosphorothioate, methylation of C not given here) [compound 101755]			84	74
320129 (antisense CATTTCTTCTTGGTCAAGGG; sugars from the 5' end e5 d10 e5, all phosphorothioate, methylation of C not given here) [compound 320129]			69	65
320118 (antisense CAGACTCTGAGGAGATTTTC; sugars from the 5' end e5 d10 e5, all phosphorothioate, methylation of C not given here) [compound 320118]			47	69
320135 (antisense ACCCCCTTCCACCATGAAGG; sugars from the 5' end e5 d10 e5, all phosphorothioate, methylation of C not given here) [compound 320135]			95	47
320163 (antisense TGTTAATGAGATAAGCAGGG; sugars from the 5' end e5 d10 e5, all phosphorothioate, methylation of C not given here) [compound 320163]			0	40
320138 (antisense TAAAGGCAGGGCCACAGGAG; sugars from the 5' end e5 d10 e5, all phosphorothioate, methylation of C not given here) [compound 320138]			87	46
320106 (antisense AACGGTCTCGACAGCTTCTT; sugars from the 5' end e5 d10 e5, all phosphorothioate, methylation of C not given here) [compound 320106]			91	67
320111 (antisense GTCAACAGCTCAGCCATGAT; sugars from the 5' end e5 d10 e5, all phosphorothioate, methylation of C not given here) [compound 320111]			86	55
320107 (antisense TAGGTCCTTTTGGCGTGAAT; sugars from the 5' end e5 d10 e5, all phosphorothioate, methylation of C not given here) [compound 320107]			84	60
320131 (antisense CTTCCCCTCACAGTGAAGTG; sugars from the 5' end e5 d10 e5, all phosphorothioate, methylation of C not given here) [compound 320131]			92	39
320104 (antisense TCAAAAGCAGCACACACCGA; sugars from the 5' end e5 d10 e5, all phosphorothioate, methylation of C not given here) [compound 320104]			82	42
